Data reported in patent publication US20140315738A1, “MARINE MEDAKA GENES RESPONDING TO THE EXPOSURE OF ENDOCRINE-DISRUPTING CHEMICALS, AND METHOD FOR DIAGNOSING AN AQUATIC ECO-SYSTEM CONTAMINATION USING SAME” (priority 2011, published 2014).

Tested on: Javanese medaka (Oryzias javanicus) livers
Assay: real-time quantitative PCR of liver gene expression after exposure to 17β-estradiol
Format: in vivo
Settings: duration of exposure 24 hr, 100 μg/L, β-actin control gene
Method: To 3 L beaker with 2 L filtered seawater therein, 10 male Javanese medaka bred in culture water tank were transported each time, and acclimated for 24 hr. […] Additionally, five Javanese medaka of Example <1-1> were exposed to BPA (76 μg/L) for 48 hr. […] The Javanese medaka was transported to ice water, one at a time, which momentarily stunned it, followed by beheading and evisceration and liver removal.
Primers for real-time quantitative PCR (RT-PCR) for the above genes were designed and synthesized (Table 3).
With RNA template extracted with the method of Example <2-1>, cDNA was synthesized using AB High Capacity RNA-to-cDNA Kit (Applied Biosystems, USA). RNA in the amount of 1 μg was seeded, added with distilled water and titrated to 9 μl. 2×RT buffer (10 μl), and 20× enzyme Mix 1 μl were mixed well, centrifuged and precipitated, and allowed to react at 37° C. for 60 min. The reactant was heated at 95° C. for 5 min, after which reaction was completed. The synthesized cDNA was stored at −20° C.
To the 0.5 μg synthesized cDNA (corresponding to approximately 10 ng/μl), 0.8 primer pairs of corresponding genes (10 pmol/μl), and 2 SYBR1 mixture (10 μl) were added. The final amount was titrated to 20 μl using distilled water. At temperature condition of 95° C. 10 min, 95° C. 30 sec, 60° C. 30 sec, 72° C. 30 sec, 40 cycles of PCR were conducted.

With C[C@]12CC[C@@H]3c4ccc(O)cc4CC[C@H]3[C@@H]1CC[C@@H]2O [17β-estradiol] the “Difference of expression level, Apolipoprotein B (SEQ ID 53)” value was 2.5 times lower, the “Difference of expression level, Cytochrome P450 1A (CYP1A) (SEQ ID 5)” value was 2.7 times lower and the “Difference of expression level, Glucose-6-phosphate dehydrogenase (SEQ ID 55)” value was 2.2 times lower. For the same molecule, the “Difference of expression level, Glutamate dehydrogenase 1b (SEQ ID 54)” value was 5.2 times lower, the “Difference of expression level, Selenoprotein M (SEQ ID 8)” value was 7.7 times higher and the “Difference of expression level, Transferrin (SEQ ID 56)” value was 3.6 times lower. The “Difference of expression level, Vitellogenin 1 (SEQ ID 37)” value was 59.1 times higher.
